In PMC9954146, “Anti-Leukaemic Activity of Rilpivirine Is Mediated by Aurora A Kinase Inhibition” (Cancers, 2023):
Like-named read-outs stand apart in the source and are kept apart here.

Key:
[1] = system: CK1(y); assay: Kinase panel; format: biochemical, yeast; conditions: 1 μM
Protocol: (§1) Kinome-wide selectivity of rilpivirine was measured using the kinase screening and profiling service of Eurofins Scientific (Le bois l’Evêque 86600. Celle-Lévescault, France) and Ki values were determined using radioisotope-based assays by Reaction Biology Corporation (Malvern, PA, USA). The experimental details of Eurofin Scientific and Reaction Biology services for relevant assays are available at https://www.eurofinsdiscoveryservices.com/services/in-Vitro-assays/kinases/kinase-profiler (accessed on 7 July 2021) and https://www.reactionbiology.com (accessed on 7 July 2021), respectively. Ki values were estimated from the corresponding IC50 values using the Cheng–Prusoff equation [21] and the Km (ATP) of individual kinase was used for IC50 determination.

[2] = target: T1, LYN (Homo sapiens, UniProt P07948); assay: Radioisotope-based kinase assay (Ki); format: biochemical; conditions: apparent Ki from IC50 and Km (ATP)
T1 construct: purchased Reaction Biology Corporation (assay service)
T1 sequence (P07948 whole entry): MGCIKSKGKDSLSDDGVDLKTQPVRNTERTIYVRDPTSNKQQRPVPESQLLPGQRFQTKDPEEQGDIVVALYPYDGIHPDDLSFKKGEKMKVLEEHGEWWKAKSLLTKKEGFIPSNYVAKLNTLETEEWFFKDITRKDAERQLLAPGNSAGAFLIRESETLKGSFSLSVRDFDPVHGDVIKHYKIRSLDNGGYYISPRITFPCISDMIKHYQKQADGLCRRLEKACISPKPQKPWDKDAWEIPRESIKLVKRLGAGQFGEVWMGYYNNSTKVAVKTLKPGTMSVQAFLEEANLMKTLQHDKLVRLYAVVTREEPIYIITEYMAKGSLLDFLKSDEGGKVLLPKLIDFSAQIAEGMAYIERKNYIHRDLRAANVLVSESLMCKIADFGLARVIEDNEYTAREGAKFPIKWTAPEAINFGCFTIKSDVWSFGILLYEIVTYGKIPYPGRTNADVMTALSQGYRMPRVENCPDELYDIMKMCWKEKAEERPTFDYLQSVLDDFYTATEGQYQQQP
Protocol: as §1

[3] = system: PIM1; assay: Radioisotope-based kinase assay (Ki); format: biochemical; conditions: PIM1 vs Aurora A
Protocol: as §1

[4] = target: T2, YES (Homo sapiens, UniProt P07947); assay: Radioisotope-based kinase assay (Ki); format: biochemical; conditions: apparent Ki from IC50 and Km (ATP)
T2 construct: purchased Reaction Biology Corporation (assay service)
T2 sequence (P07947 whole entry): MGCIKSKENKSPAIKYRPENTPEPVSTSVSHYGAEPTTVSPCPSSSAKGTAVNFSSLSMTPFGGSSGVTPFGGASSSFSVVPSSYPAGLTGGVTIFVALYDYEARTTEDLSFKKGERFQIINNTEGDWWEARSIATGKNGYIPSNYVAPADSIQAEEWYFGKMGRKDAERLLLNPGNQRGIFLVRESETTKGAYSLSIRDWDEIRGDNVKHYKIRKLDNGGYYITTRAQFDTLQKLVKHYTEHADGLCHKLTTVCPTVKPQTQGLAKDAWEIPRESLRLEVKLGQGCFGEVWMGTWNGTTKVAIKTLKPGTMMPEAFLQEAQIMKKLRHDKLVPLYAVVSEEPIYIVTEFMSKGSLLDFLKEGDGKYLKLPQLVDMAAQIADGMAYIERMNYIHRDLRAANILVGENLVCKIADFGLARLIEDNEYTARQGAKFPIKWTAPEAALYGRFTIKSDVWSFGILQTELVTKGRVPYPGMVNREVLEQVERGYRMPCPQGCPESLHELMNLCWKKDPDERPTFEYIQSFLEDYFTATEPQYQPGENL
Protocol: as §1

[5] = system: HL-60 cells; assay: Resazurin cell viability assay; format: cell-based; conditions: Homo sapiens, read-out: GI50
Protocol: Cell viability was determined by a resazurin-based assay as described previously. […] At the end of the treatment period, 20 µL of resazurin (0.1 mg/mL in PBS) was added per well and incubated for further 4 h.

[6] = system: leukaemia cell lines (HL-60, NB4, K-562, and U-937); assay: Resazurin cell viability assay, four cell lines; format: cell-based; conditions: Homo sapiens; after 24, 48, or 72 h of treatment; read-out: GI50 values, range over all cell lines
Protocol: Cell viability was determined by a resazurin-based assay as described previously. Briefly, 5 × 10^3 cells/well were seeded into 96-well plates (Corning Inc., Corning, NY, USA) in 180 µL of RPMI 1640 medium and incubated overnight at 37 °C with 5% CO2. Next day, cells were treated with rilpivirine after serially diluted (1:2 dilution for final concentrations ranging from 0.625 µM to 40 µM) or DMSO (0.1%) for specified time periods (24, 48, or 72 h). At the end of the treatment period, 20 µL of resazurin (0.1 mg/mL in PBS) was added per well and incubated for further 4 h. Fluorescence intensities were recorded at 570 nm (excitation)/585 nm (emission) using an EnVision® multilabel plate reader (PerkinElmer, MA, USA). Drug concentrations required for cell viability reduction by 50% (GI50) compared with untreated (DMSO vehicle-treated only) control were determined by a non-linear regression model using GraphPad Prism software version 7.02 (La Jolla, CA, USA).

[7] = system: HL-60 cells; assay: Colony formation assay; format: cell-based, human; conditions: 2.5, 5, or 10 µM, 10 days
Protocol: (§2) For colony formation assay, 2 × 10^3 cells/well (in 6-well plates) were treated for 10 days with rilpivirine (2.5, 5, or 10 µM) or DMSO (0.1%) and incubated with 1.5 mL of cytokine-free H4230 medium ([…] Technologies, Inc., Vancouver, BC, Canada). After the incubation period, cells were stained with 300 µL/well of 3-(4,5-dimethylthiazol-2-yl)-2,5-diphenyltetrazolium bromide solution (0.5 mg/mL in PBS) (Sigma-Aldrich, St Louis, MO, USA) and incubated for 1 h. Colonies were then counted on an inverted microscope.

[8] = system: NB4 cells; assay: Colony formation assay; format: cell-based, human; conditions: 2.5, 5, or 10 µM, 10 days
Protocol: as §2

[9] = system: caspase 3/7 in HL-60, NB4, K-562, and U-937 cells; assay: Caspase-3/7 activity assay; format: cell-based, human; conditions: 10 µM, 48 h, all cell lines
Protocol: Caspase-3/7 activity was measured after incubation of the cells with the test compounds for a specified time point using an Apo-ONE homogeneous caspase-3/7 kit (Promega, Madison, WI, USA) according to the manufacturer’s instructions. The signal was recorded by the EnVision multi-label plate reader (PerkinElmer, Beaconsfield, UK).

[10] = system: Aurora A kinase signalling pathway proteins in HL-60 and NB4 cells; assay: Western blotting, concentration series; format: cell-based, human; conditions: 24 h
Protocol: (§3) Western blotting was performed following a method described previously. Briefly, 8 × 10^5 to 1 × 10^6 cells were seeded in petri dishes with 8 to 10 mL of culture medium and incubated overnight at 37 °C, 5% CO2. Then, the cells were treated with the test compounds and further incubated for the specified time point. Cells were then lysed using a lysis buffer containing protease inhibitors, and proteins were extracted by centrifugation. Protein concentrations were determined by using a Bio-Rad DC^TM protein assay kit (Bio-Rad Laboratories, Hercules, CA, USA). A total of 20–30 μg of proteins was loaded onto each well of 4–20% polyacrylamide gels for electrophoresis. Once electrophoresis was completed, gels were placed on pre-soaked polyvinylidene difluoride membranes and blocked with 10% skimmed milk in 1 × Tris-buffered saline and Tween (TBST). Then, the blots were incubated with primary antibodies, followed by washing with TBST for 4 × 20 min. After this, the blots were incubated with the appropriate horseradish peroxidase (HRP)-conjugated secondary antibody, followed by washing again with TBST for 4 × 20 min. The protein bands were then detected with either ECL prime (Amersham^TM ECL^TM prime Western blotting detection reagent) or ECL select (Amersham^TM ECL^TM select Western blotting detection reagent) depending on the abundance of the protein of interest. The blots were imaged using the Bio-Rad ChemiDoc^TM MP imaging system (Bio-Rad Laboratories, Hercules, CA, USA). All the primary and secondary antibodies used in this study were purchased from Cell Signaling Technology (Danvers, MA, USA).

[11] = system: Aurora A kinase signalling pathway proteins in HL-60 cells; assay: Western blotting, HL-60 time course and combination; format: cell-based, human; conditions: 10 µM, time course
Protocol: as §3

[12] = target: PIM1; set-up: method as in PMID 36297298; conditions: apparent Ki from IC50 and Km (ATP); cited from earlier work

SMILES: Cc1cc(/C=C/C#N)cc(C)c1Nc1ccnc(Nc2ccc(C#N)cc2)n1 [rilpivirine, (E)-4-((4-((4-(2-cyanoethenyl)-2,6-dimethylphenyl)amino)pyrimidin-2-yl)amino)benzonitrile]
- % Residual Activity [1]: 92%
- Ki [2]: 0.93 µM
- potency against PIM1 relative to Aurora A kinase [3]: four-and-a-half-fold less potent
- Ki [4]: 1.57 µM
- GI50 ([5]; HL-60, 24 h): 9.16 ± 1.05 µM
- GI50 ([5]; HL-60, 48 h): 6.26 ± 0.15 µM
- GI50 ([5]; HL-60, 72 h): 4.12 ± 0.18 µM
- GI50 [6]: 4.12 to 12.4 µM
- clonogenic growth [7]: significantly decreased
- clonogenic growth [8]: significantly decreased
- caspase 3/7 activation vs untreated control [9]: significantly increased
- CDK1 level [10]: reduced
- Cdc25C (Ser198) phosphorylation [10]: inhibited
- PARP and caspase 3 cleavage [10]: increased
- Plk1 (Thr210) phosphorylation [10]: inhibited
- anti-apoptotic protein Mcl-1 [10]: down-regulation
- cyclin B1 level [10]: reduced
- phospho-Histone H3 (Ser10) [10]: induced
- phosphorylation of CENP (Ser7) [10]: inhibited
- total Aurora A [10]: without affecting
- auto-phosphorylation of Aurora A at Thr288 ([10]; concentration-dependent): suppressed
- time from which PARP cleavage was detected [11]: ≥ 12 h
- time of maximum induction of phospho-Histone H3 (Ser10) [11]: 18 h
- time until inhibition of Aurora-A autophosphorylation was evident [11]: ≤ 6 h
- Ki [12]: 0.52 µM
